≈ marks a conversion by molar mass, not a printed value.
Tests used:
Assay type in all cases: functional
[1] = system: Cryptococcus neoformans; experiment: Antifungal activity against Cryptococcus neoformans assessed as fungal growth at 0.125 ug/ml after 72 hrs by broth microdilution method
[2] = system: Cryptococcus neoformans; experiment: Antifungal activity against Cryptococcus neoformans after 72 hrs by broth microdilution method
[3] = system: Trichophyton mentagrophytes; experiment: Antifungal activity against Trichophyton mentagrophytes after 7 days by broth microdilution method; conditions: 168 h
[4] = system: Trichophyton rubrum; experiment: Antifungal activity against Trichophyton rubrum after 7 days by broth microdilution method; conditions: 168 h
[5] = system: Trichophyton mentagrophytes; experiment: Antifungal activity against Trichophyton mentagrophytes assessed as fungal growth at 0.25 ug/ml after 7 days by broth microdilution method
[6] = system: Trichophyton rubrum; experiment: Antifungal activity against Trichophyton rubrum assessed as fungal growth at 0.25 ug/ml after 7 days by broth microdilution method

SMILES	MIC80 [2]	MIC50 [3]	MIC80 [3]	MIC50 [4]	MIC80 [4]	MIC50 [2]	Activity [1]	Activity [5]	Activity [6]
C[C@H](c1cccc2ccccc12)N(C)Cc1ccc(C(C)(C)C)cc1	0.25 µg/mL (≈ 0.754 µM)	0.06 µg/mL (≈ 0.181 µM)	0.125 µg/mL (≈ 0.377 µM)	0.06 µg/mL (≈ 0.181 µM)	0.125 µg/mL (≈ 0.377 µM)	–	>50%	–	–
C[C@@H](c1cccc2ccccc12)N(C)Cc1ccc(C(C)(C)C)cc1	2 µg/mL (≈ 6.03 µM)	–	–	–	–	1 µg/mL (≈ 3.02 µM)	–	–	–
C[C@H](c1cccc2ccccc12)N(C)Cc1ccc(C(F)(F)F)cc1	1 µg/mL (≈ 2.91 µM)	0.25 µg/mL (≈ 0.728 µM)	0.5 µg/mL (≈ 1.46 µM)	0.25 µg/mL (≈ 0.728 µM)	0.5 µg/mL (≈ 1.46 µM)	0.5 µg/mL (≈ 1.46 µM)	–	–	–
C[C@H](c1cccc2ccccc12)N(C)Cc1ccc([Si](C)(C)C)cc1	1 µg/mL (≈ 2.88 µM)	–	0.5 µg/mL (≈ 1.44 µM)	–	0.5 µg/mL (≈ 1.44 µM)	0.5 µg/mL (≈ 1.44 µM)	–	>50%	>50%
C[C@H](c1cccc2ccccc12)N(C)Cc1ccc(OC(F)(F)F)cc1	4 µg/mL (≈ 11.1 µM)	–	0.5 µg/mL (≈ 1.39 µM)	0.5 µg/mL (≈ 1.39 µM)	1 µg/mL (≈ 2.78 µM)	2 µg/mL (≈ 5.56 µM)	–	>50%	–
C[C@H](c1cccc2ccccc12)N(C)Cc1ccc(OCc2ccccc2)cc1	1 µg/mL (≈ 2.62 µM)	0.125 µg/mL (≈ 0.328 µM)	0.25 µg/mL (≈ 0.655 µM)	0.125 µg/mL (≈ 0.328 µM)	0.25 µg/mL (≈ 0.655 µM)	0.5 µg/mL (≈ 1.31 µM)	–	–	–
C[C@H](c1cccc2ccccc12)N(C)Cc1ccc(-c2ccccc2)cc1	> 32 µg/mL	–	–	–	–	> 16 µg/mL	–	–	–
C[C@H](c1cccc2ccccc12)N(C)Cc1ccccc1C(F)(F)F	> 32 µg/mL	–	–	–	–	> 32 µg/mL	–	–	–
C[C@H](c1cccc2ccccc12)N(C)Cc1ccccc1-c1ccccc1	> 32 µg/mL	–	–	–	–	> 32 µg/mL	–	–	–
C[C@H](c1cccc2ccccc12)N(C)Cc1cc(C(F)(F)F)cc(C(F)(F)F)c1	> 32 µg/mL	–	–	–	–	> 32 µg/mL	–	–	–
C[C@H](c1cccc2ccccc12)N(C)Cc1cc(C(C)(C)C)cc(C(C)(C)C)c1	> 32 µg/mL	–	–	–	–	32 µg/mL (≈ 82.6 µM)	–	–	–
Cc1cc(C(C)(C)C)cc(C)c1CN(C)[C@H](C)c1cccc2ccccc12	32 µg/mL (≈ 89 µM)	> 32 µg/mL	> 32 µg/mL	> 32 µg/mL	> 32 µg/mL	1 µg/mL (≈ 2.78 µM)	–	–	–
C[C@H](c1cccc2ccccc12)N(C)Cc1ccccn1	> 32 µg/mL	–	–	–	–	> 32 µg/mL	–	–	–
C[C@@H](c1ccc(C(C)(C)C)cc1)N(C)Cc1cccc2ccccc12	4 µg/mL (≈ 12.1 µM)	0.5 µg/mL (≈ 1.51 µM)	1 µg/mL (≈ 3.02 µM)	0.5 µg/mL (≈ 1.51 µM)	1 µg/mL (≈ 3.02 µM)	2 µg/mL (≈ 6.03 µM)	–	–	–
C[C@H](c1ccc(C(C)(C)C)cc1)N(C)Cc1cccc2ccccc12	> 32 µg/mL	> 32 µg/mL	> 32 µg/mL	> 32 µg/mL	> 32 µg/mL	> 32 µg/mL	–	–	–
CC(C)(C)c1ccc([C@H](CF)NCc2cccc3ccccc23)cc1	> 32 µg/mL	2 µg/mL (≈ 5.96 µM)	4 µg/mL (≈ 11.9 µM)	2 µg/mL (≈ 5.96 µM)	4 µg/mL (≈ 11.9 µM)	> 32 µg/mL	–	–	–
CC(C)(C)c1ccc([C@@H](CF)NCc2cccc3ccccc23)cc1	> 32 µg/mL	> 32 µg/mL	> 32 µg/mL	> 32 µg/mL	> 32 µg/mL	> 32 µg/mL	–	–	–
CN(Cc1cccc2ccccc12)[C@@H](CF)c1ccc(C(C)(C)C)cc1	> 32 µg/mL	> 32 µg/mL	> 32 µg/mL	> 32 µg/mL	> 32 µg/mL	> 32 µg/mL	–	–	–
CN(Cc1cccc2ccccc12)[C@H](CF)c1ccc(C(C)(C)C)cc1	> 32 µg/mL	> 32 µg/mL	> 32 µg/mL	> 32 µg/mL	> 32 µg/mL	> 32 µg/mL	–	–	–
C[C@@H]1[C@H](O)[C@@H](C)/C=C/C=C/C=C/C=C/C=C/C=C/C=C/[C@H](O[C@@H]2O[C@H](C)[C@@H](O)[C@H](N)[C@@H]2O)C[C@@H]2O[C@](O)(C[C@@H](O)C[C@@H](O)[C@H](O)CC[C@@H](O)C[C@@H](O)CC(=O)O[C@H]1C)C[C@H](O)[C@H]2C(=O)O [AMPHOTERICIN B]	< 0.5 µg/mL	0.5 µg/mL (≈ 0.541 µM)	< 1 µg/mL	> 0.25 µg/mL	< 0.5 µg/mL	0.25 µg/mL (≈ 0.271 µM)	–	–	–
CN(Cc1ccc(C(C)(C)C)cc1)Cc1cccc2ccccc12 [BUTENAFINE]	1 µg/mL (≈ 3.15 µM)	0.06 µg/mL (≈ 0.189 µM)	0.125 µg/mL (≈ 0.394 µM)	0.03 µg/mL (≈ 0.0945 µM)	0.06 µg/mL (≈ 0.189 µM)	0.5 µg/mL (≈ 1.57 µM)	–	–	–

Continued, in another order:

MIC80 [2]	MIC50 [3]	MIC80 [3]	MIC50 [4]	MIC80 [4]	MIC50 [2]	SMILES	Activity [1]	Activity [5]	Activity [6]
> 16 µg/mL	–	–	–	–	16 µg/mL (≈ 58.1 µM)	C[C@H](c1cccc2ccccc12)N(C)Cc1ccccc1	–	–	–
1 µg/mL (≈ 3.46 µM)	0.25 µg/mL (≈ 0.864 µM)	0.5 µg/mL (≈ 1.73 µM)	0.25 µg/mL (≈ 0.864 µM)	0.5 µg/mL (≈ 1.73 µM)	0.5 µg/mL (≈ 1.73 µM)	Cc1ccc(CN(C)[C@H](C)c2cccc3ccccc23)cc1	–	–	–
4 µg/mL (≈ 13.1 µM)	1 µg/mL (≈ 3.27 µM)	2 µg/mL (≈ 6.55 µM)	1 µg/mL (≈ 3.27 µM)	2 µg/mL (≈ 6.55 µM)	2 µg/mL (≈ 6.55 µM)	COc1ccc(CN(C)[C@H](C)c2cccc3ccccc23)cc1	–	–	–
1 µg/mL (≈ 2.82 µM)	0.25 µg/mL (≈ 0.706 µM)	0.5 µg/mL (≈ 1.41 µM)	0.125 µg/mL (≈ 0.353 µM)	0.25 µg/mL (≈ 0.706 µM)	0.5 µg/mL (≈ 1.41 µM)	C[C@H](c1cccc2ccccc12)N(C)Cc1ccc(Br)cc1	–	–	–
> 16 µg/mL	1 µg/mL (≈ 3.12 µM)	2 µg/mL (≈ 6.24 µM)	0.25 µg/mL (≈ 0.78 µM)	0.5 µg/mL (≈ 1.56 µM)	2 µg/mL (≈ 6.24 µM)	C[C@H](c1cccc2ccccc12)N(C)Cc1ccc([N+](=O)[O-])cc1	–	–	–
> 32 µg/mL	–	–	–	–	> 32 µg/mL	C[C@H](c1cccc2ccccc12)N(C)Cc1ccccc1F	–	–	–
> 32 µg/mL	–	–	–	–	> 32 µg/mL	C[C@H](c1cccc2ccccc12)N(C)Cc1ccccc1Br	–	–	–
8 µg/mL (≈ 22.6 µM)	2 µg/mL (≈ 5.65 µM)	4 µg/mL (≈ 11.3 µM)	1 µg/mL (≈ 2.82 µM)	2 µg/mL (≈ 5.65 µM)	4 µg/mL (≈ 11.3 µM)	C[C@H](c1cccc2ccccc12)N(C)Cc1cccc(Br)c1	–	–	–
8 µg/mL (≈ 23.3 µM)	4 µg/mL (≈ 11.6 µM)	> 32 µg/mL	2 µg/mL (≈ 5.82 µM)	4 µg/mL (≈ 11.6 µM)	4 µg/mL (≈ 11.6 µM)	C[C@H](c1cccc2ccccc12)N(C)Cc1cccc(C(F)(F)F)c1	–	–	–
> 32 µg/mL	–	–	–	–	16 µg/mL (≈ 57.9 µM)	C[C@H](c1cccc2ccccc12)N(C)Cc1ccncc1	–	–	–
> 32 µg/mL	–	–	–	–	> 32 µg/mL	C[C@H](c1cccc2ccccc12)N(C)Cc1cccnc1	–	–	–
8 µg/mL (≈ 27.3 µM)	–	–	–	–	4 µg/mL (≈ 13.6 µM)	C[C@H](c1cccc2ccccc12)N(C)Cc1ccc(F)cc1	–	–	–

Reference: ChEMBL document CHEMBL2424576, “Chiral N-benzyl-N-methyl-1-(naphthalen-1-yl)ethanamines and their in vitro antifungal activity against Cryptococcus neoformans, Trichophyton mentagrophytes and Trichophyton rubrum” (2013)
